Test results: PMC11811690 (Angewandte Chemie (International Ed. in English), 2024)
≈ marks a conversion by molar mass, not a printed value. Where “and” joins values, the source holds several entries; their conditions need not be identical. Identical values can stand only once. Like-named read-outs stand apart in the source and are kept apart here.

Key:
[1] = test system: mutant RNAP^R89A; design: method as in PMID 29606590; details: transcription assay, mutant versus wild-type RNAP; cited from earlier work
[2] = test system: M. tuberculosis H37Rv poly-g-GFP; experiment: microbe, parasite or virus in culture; assay type: cell-based; details: Mycobacterium tuberculosis, 336 h, read-out: MIC Mtb H37Rv-poly-g-GFP, turbidity read-out
[3] = test system: C. crescentus pfhuA_ΔacrAB-nodT; assay type: cell-based; details: disk diffusion, 20 µg per disk, 24 h, 30 °C; permeable and efflux-deficient strain
[4] = test system: C. difficile 630; experiment: microbe, parasite or virus in culture; assay type: cell-based, Clostridioides difficile; details: C. difficile 630, anaerobic, overnight, growth suppressed to OD600 < 0.15; for MIC: Clostridioides difficile, read-out: MIC C. difficile
[5] = test system: M. tuberculosis H37Rv poly-g-GFP; experiment: microbe, parasite or virus in culture; assay type: cell-based; details: for IC90: Mycobacterium tuberculosis, H37RV, 240 h, read-out: IC90 Mtb H37Rv-poly-g-GFP, fluorescence read-out
[6] = test system: C. crescentus pfhuA; experiment: Inhibition zone (Kirby-Bauer disk diffusion), C. crescentus pfhuA; details: 20 µg per disk, 24 h, 30 °C, permeable strain
[7] = target: T1, M. tuberculosis RNAP (Mycobacterium tuberculosis, UniProt P9WGY7+P9WGY9); experiment: biochemical; details: fluorescent run-off transcription assay, triplicate, mean ± s.d.; read-out: IC50 Mtb RNAP, fluorescence read-out
T1 construct: made in house; host or cells: E. coli BL21(DE3) is stated for σA only

[8] = 14 days, 37 °C, turbidity by eye
[9] = concentration for 90 % inhibition of fluorescence as proxy for growth inhibition, 10 days, 37 °C

Compound | increase of IC50 against the mutant RNAP^R89A [1] | MIC [2] | Inhibition zone C. crescentus pfuhAh_∆acrABnodT [3] | MIC [4] | IC90 [5] | Inhibition zone C. crescentus pfuhAh [6] | IC50 [7] | MIC C. difficile [4] | MIC [2, 8] | activity against M. tuberculosis (in words) [5] | IC90 [5, 9]
CCc1c(Cl)c(O)c(Cl)c(O)c1C(=O)O[C@H]1[C@H](O)[C@H](OC)[C@H](OC/C2=C\C=C\C[C@H](O)/C(C)=C/[C@H](CC)[C@@H](O[C@@H]3OC(C)(C)[C@@H](OC(=O)C(C)C)[C@H](O)[C@@H]3O)/C(C)=C/C(C)=C/C[C@@H]([C@@H](C)O)OC2=O)O[C@@H]1C [Fdx, fidaxomicin, reference compound] | > 400 fold | 0.5 µg/mL (≈ 0.473 µM) | 311 ± 4 mm2 and 311±4.0 mm2 | < 0.0078 µg/mL | 0.5 µg/mL (≈ 0.473 µM) | 126 ± 20 mm2 | – | – | – | – | –
CC[C@H]1/C=C(\C)[C@@H](O)C/C=C/C=C(\CNc2nccs2)C(=O)O[C@H]([C@@H](C)O)C/C=C(C)/C=C(\C)[C@@H]1O[C@@H]1OC(C)(C)[C@@H](OC(=O)C(C)C)[C@H](O)[C@@H]1O [compound 8] | – | – | 263 ± 32 mm2 | 4 to 8 µg/mL (≈ 5.36 to 10.7 µM) | 16 µg/mL (≈ 21.4 µM) | 81 ± 12 mm2 | – | – | – | – | –
CC[C@H]1/C=C(\C)[C@@H](O)C/C=C/C=C(\CNc2nc(COc3ccccc3)cs2)C(=O)O[C@H]([C@@H](C)O)C/C=C(C)/C=C(\C)[C@@H]1O[C@@H]1OC(C)(C)[C@@H](OC(=O)C(C)C)[C@H](O)[C@@H]1O [compound 10] | – | 4 to 8 µg/mL (≈ 4.69 to 9.38 µM) | – | 1 µg/mL (≈ 1.17 µM) | 8 µg/mL (≈ 9.38 µM) | – | 170 ± 60 nM | 1 µg/mL (≈ 1.17 µM) | – | – | –
CC[C@H]1/C=C(\C)[C@@H](O)C/C=C/C=C(\CNc2nc(-c3ccccc3)cs2)C(=O)O[C@H]([C@@H](C)O)C/C=C(C)/C=C(\C)[C@@H]1O[C@@H]1OC(C)(C)[C@@H](OC(=O)C(C)C)[C@H](O)[C@@H]1O [compound 13] | – | 8 to 16 µg/mL (≈ 9.72 to 19.4 µM) | – | 4 µg/mL (≈ 4.86 µM) | 8 µg/mL (≈ 9.72 µM) | – | 130 ± 50 nM | – | – | – | –
CC[C@H]1/C=C(\C)[C@@H](O)C/C=C/C=C(\CNCc2nnc(-c3ccccc3)o2)C(=O)O[C@H]([C@@H](C)O)C/C=C(C)/C=C(\C)[C@@H]1O[C@@H]1OC(C)(C)[C@@H](OC(=O)C(C)C)[C@H](O)[C@@H]1O [compound 16] | – | 4 µg/mL (≈ 4.87 µM) | 322 ± 26 mm2 | 4 to 8 µg/mL (≈ 4.87 to 9.73 µM) | 4 µg/mL (≈ 4.87 µM) | 127 ± 13 mm2 | 420 ± 230 nM | – | – | – | –
CC[C@H]1/C=C(\C)[C@@H](O)C/C=C/C=C(\CNCc2nnc(-c3ccc(OC)c(OC)c3Cl)o2)C(=O)O[C@H]([C@@H](C)O)C/C=C(C)/C=C(\C)[C@@H]1O[C@@H]1OC(C)(C)[C@@H](OC(=O)C(C)C)[C@H](O)[C@@H]1O [compound 18] | – | 4 µg/mL (≈ 4.36 µM) | 200 ± 19 mm2 | 8 µg/mL (≈ 8.73 µM) | 8 µg/mL (≈ 8.73 µM) | 54 ± 8 mm2 | – | – | – | – | –
CC[C@H]1/C=C(\C)[C@@H](O)C/C=C/C=C(\CNCc2nnc(-c3ccccc3)s2)C(=O)O[C@H]([C@@H](C)O)C/C=C(C)/C=C(\C)[C@@H]1O[C@@H]1OC(C)(C)[C@@H](OC(=O)C(C)C)[C@H](O)[C@@H]1O [compound 20] | – | 2 µg/mL (≈ 2.39 µM) | 241 ± 40 mm2 | – | 2 µg/mL (≈ 2.39 µM) | 108 ± 11 mm2 | – | – | – | – | –
CC[C@H]1/C=C(\C)[C@@H](O)C/C=C/C=C(\CNCc2nnc(-c3cc(Cl)cc(Cl)c3)o2)C(=O)O[C@H]([C@@H](C)O)C/C=C(C)/C=C(\C)[C@@H]1O[C@@H]1OC(C)(C)[C@@H](OC(=O)C(C)C)[C@H](O)[C@@H]1O [compound 21] | – | 2 µg/mL (≈ 2.24 µM) | 73 ± 11 mm2 | 4 µg/mL (≈ 4.49 µM) | 8 µg/mL (≈ 8.98 µM) | – | – | – | – | – | –
CC[C@H]1/C=C(\C)[C@@H](O)C/C=C/C=C(\CNc2ccc(C#N)cc2)C(=O)O[C@H]([C@@H](C)O)C/C=C(C)/C=C(\C)[C@@H]1O[C@@H]1OC(C)(C)[C@@H](OC(=O)C(C)C)[C@H](O)[C@@H]1O [compound 24] | – | – | – | 4 µg/mL (≈ 5.23 µM) | – | – | – | – | 16 µg/mL (≈ 20.9 µM) | showed activity | 16 µg/mL (≈ 20.9 µM)
CC[C@H]1/C=C(\C)[C@@H](O)C/C=C/C=C(\CNc2ccc(C#N)cn2)C(=O)O[C@H]([C@@H](C)O)C/C=C(C)/C=C(\C)[C@@H]1O[C@@H]1OC(C)(C)[C@@H](OC(=O)C(C)C)[C@H](O)[C@@H]1O [compound 25] | – | – | – | – | – | – | – | 1 µg/mL (≈ 1.31 µM) | 8 µg/mL (≈ 10.4 µM) | – | 16 µg/mL (≈ 20.9 µM)
CC[C@H]1/C=C(\C)[C@@H](O)C/C=C/C=C(\CNc2cccc(CN)c2)C(=O)O[C@H]([C@@H](C)O)C/C=C(C)/C=C(\C)[C@@H]1O[C@@H]1OC(C)(C)[C@@H](OC(=O)C(C)C)[C@H](O)[C@@H]1O [compound 27] | – | – | 119 ± 15 mm2 | > 32 µg/mL | – | – | > 100000 nM | – | – | – | 32 µg/mL (≈ 41.6 µM)
CC[C@H]1/C=C(\C)[C@@H](O)C/C=C/C=C(\CNc2cccc(CNC(=O)c3ccc(OC)c(OC)c3Cl)c2)C(=O)O[C@H]([C@@H](C)O)C/C=C(C)/C=C(\C)[C@@H]1O[C@@H]1OC(C)(C)[C@@H](OC(=O)C(C)C)[C@H](O)[C@@H]1O [compound 30] | – | – | – | > 32 µg/mL | – | – | 620 ± 290 nM | – | – | – | 16 µg/mL (≈ 16.5 µM)
